Series [1] has as its target T1, PqsR (Pseudomonas aeruginosa, UniProt Q9I4X0). As to the kind of experiment: STD-NMR titration ([…] to […] DHQ, […] SUMO-PqsR-C87); EMSA also gave an apparent Kd of […]. In kind it is binding. On the set-up: gene mvfR. Background: A gel shift assay detects complexes by their altered migration in electrophoresis.
Target sequence in this assay (Q9I4X0 87-332): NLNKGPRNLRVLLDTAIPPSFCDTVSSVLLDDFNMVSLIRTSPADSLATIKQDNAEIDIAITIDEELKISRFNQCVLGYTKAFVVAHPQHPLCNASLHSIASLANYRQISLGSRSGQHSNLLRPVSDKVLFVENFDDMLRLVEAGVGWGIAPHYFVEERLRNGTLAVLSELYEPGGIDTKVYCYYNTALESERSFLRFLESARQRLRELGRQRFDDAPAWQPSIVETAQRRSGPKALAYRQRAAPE
Series [2] concerns the target T1, PqsR. As to the kind of experiment: EMSA with lysate of E. coli Rosetta expressing His-SUMO-PqsR and biotinylated pqsA promoter DNA, semi-quantitative apparent Kd. In kind it is biochemical. Also noted: gene mvfR; recombinant PqsR, N-terminal His-tagged SUMO fusion.
Target sequence in this assay (Q9I4X0 whole entry, the tested form may be a part): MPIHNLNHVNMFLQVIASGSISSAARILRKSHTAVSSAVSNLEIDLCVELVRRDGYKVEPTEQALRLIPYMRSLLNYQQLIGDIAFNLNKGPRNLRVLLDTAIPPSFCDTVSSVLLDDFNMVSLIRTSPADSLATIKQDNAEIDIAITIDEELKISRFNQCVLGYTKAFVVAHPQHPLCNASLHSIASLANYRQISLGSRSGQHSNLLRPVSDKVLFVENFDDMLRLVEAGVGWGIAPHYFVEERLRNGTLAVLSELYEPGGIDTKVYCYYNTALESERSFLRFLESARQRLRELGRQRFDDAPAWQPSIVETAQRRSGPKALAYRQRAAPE
For series [3], the system named is His-SUMO-PqsR (Pseudomonas aeruginosa (PAO1?)). As to the kind of experiment: EMSA.

pKd: −log10 of the molar value.

One may read the pKd as −log10 of the Kd, conventionally taken in molar units.

`Oc1cc(O)c2ccccc2n1` [DHQ, 2,4-dihydroxyquinoline]: in series [1], the pKd was about 6.35.
Regarding `CCCCCCCc1[nH]c2ccccc2c(=O)c1O` [PQS, 2-heptyl-3-hydroxy-4-quinolone], the pKd in series [2] is 7.48.
In series [3], Bio-pqsA (pqsA' promoter probe) registered a binding signal (fraction free probe) of 0.0488.

Values taken from PMC4715436, “The role of 2,4-dihydroxyquinoline (DHQ) in Pseudomonas aeruginosa pathogenicity” (PeerJ, 2016).
